Test results from paper PMC12362783 (Advanced Science, 2025).

How the values were obtained:
PARP1 = PARP1 (Homo sapiens, UniProt P09874); assay: PARP enzymatic inhibition ELISA (PARP1); format: biochemical; settings: n = 3, mean ± SD
MDA‐MB‐231 = assay: Cell growth inhibition, CellTiter‐Glo (CTG); format: cell-based
Procedure: (§1) All cells were grown in a humidified incubator at 37 °C and 5% CO2.
(§2) […] […] Relative viability was calculated by normalizing the raw luminescence counts of the treated groups to those of the DMSO control groups. IC₅₀ values were calculated using sigmoidal dose‐response curve fitting with GraphPad Prism 9.0 software.

MDA‐MB‐468 = assay: Cell growth inhibition, CellTiter‐Glo (CTG); format: cell-based
Procedure: as §1, §2

MDA‐MB‐436 = assay: Cell growth inhibition, CellTiter‐Glo (CTG); format: cell-based; settings: Homo sapiens, MDA-MB-436, 120 h; CTG, 5 days, n = 3
MCF‐7 = assay: Cell growth inhibition, CellTiter‐Glo (CTG); format: cell-based; settings: Homo sapiens, MCF7; n = 3
Procedure: (§3) Growth viability was determined by the CellTiter‐Glo luminescent viability assay (Promega) 5 days after drug treatment. Cell viability was measured immediately after dosing (Day 0) and after 5 days of incubation using CellTiter‐Glo (CTG, Promega, G7573). Relative viability was calculated by normalizing the raw luminescence counts of the treated groups to those of the DMSO control groups. IC₅₀ values were calculated using sigmoidal dose‐response curve fitting with GraphPad Prism 9.0 software.

MDA‐MB‐453 = assay: Cell growth inhibition, CellTiter‐Glo (CTG); format: cell-based; settings: Homo sapiens, MDA-MB-453; n = 3; read-out: IC50 MAD‐MB‐453
Procedure: as §3

MCF‐10A = assay: Cell growth inhibition, normal breast cell line; format: cell-based
Procedure: as §3

DNA‐PK = DNA‐PK (Homo sapiens, UniProt P78527); assay: PIKK family kinase selectivity; format: biochemical
PARP2 = PARP2 (Homo sapiens, UniProt Q9UGN5); assay: PARP family selectivity; format: biochemical
Sequence of PARP2 (Q9UGN5 whole entry, species assumed): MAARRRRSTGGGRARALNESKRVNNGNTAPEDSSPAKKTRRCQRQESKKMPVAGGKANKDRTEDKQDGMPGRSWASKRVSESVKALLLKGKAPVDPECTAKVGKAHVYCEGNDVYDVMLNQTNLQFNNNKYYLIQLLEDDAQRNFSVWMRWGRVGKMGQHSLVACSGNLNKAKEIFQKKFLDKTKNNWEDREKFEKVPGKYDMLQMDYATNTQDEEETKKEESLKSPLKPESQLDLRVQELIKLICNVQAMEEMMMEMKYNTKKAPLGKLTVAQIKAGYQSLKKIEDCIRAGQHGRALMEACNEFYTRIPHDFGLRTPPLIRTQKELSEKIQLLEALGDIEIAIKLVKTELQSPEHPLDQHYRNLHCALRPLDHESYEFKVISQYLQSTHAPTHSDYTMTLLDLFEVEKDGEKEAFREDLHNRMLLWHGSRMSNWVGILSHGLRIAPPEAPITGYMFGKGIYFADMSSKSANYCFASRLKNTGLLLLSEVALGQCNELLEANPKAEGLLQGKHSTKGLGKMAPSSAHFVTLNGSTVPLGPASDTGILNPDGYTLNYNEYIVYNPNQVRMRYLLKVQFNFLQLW
Procedure: (§4) The PARP activity assay was performed by ChemPartner (Shanghai, China). Each well was precoated with histone (final conc.: 100 ng mL^−1) diluted in PBS buffer (contains 10 mmol L^−1 NaH2PO4 and 150 mmol L^−1 NaCl, pH 7.4) by incubation at 4 °C overnight. […] The reaction was initiated by the addition of 10 µL of PARP (final conc.: 0.007 nM/well) at room temperature for 60 min. Add 20 µL of anti‐Poly/Mono‐ADP Ribose Rabbit mAb. Incubate for 1.5 h at room temperature and wash the plate three times using PBST buffer. […] Incubate for 1 h at room temperature and wash the plate three times using PBST buffer. Add 25 µL Femto‐ECL Substrate A and Femto‐ECL Substrate B (1:1) mix. Immediately read chemiluminescence on Envision (Revvity, USA).

PARP7 = PARP7 (Homo sapiens, UniProt Q7Z3E1); assay: PARP family selectivity; format: biochemical
Sequence of PARP7 (Q7Z3E1 whole entry, species assumed): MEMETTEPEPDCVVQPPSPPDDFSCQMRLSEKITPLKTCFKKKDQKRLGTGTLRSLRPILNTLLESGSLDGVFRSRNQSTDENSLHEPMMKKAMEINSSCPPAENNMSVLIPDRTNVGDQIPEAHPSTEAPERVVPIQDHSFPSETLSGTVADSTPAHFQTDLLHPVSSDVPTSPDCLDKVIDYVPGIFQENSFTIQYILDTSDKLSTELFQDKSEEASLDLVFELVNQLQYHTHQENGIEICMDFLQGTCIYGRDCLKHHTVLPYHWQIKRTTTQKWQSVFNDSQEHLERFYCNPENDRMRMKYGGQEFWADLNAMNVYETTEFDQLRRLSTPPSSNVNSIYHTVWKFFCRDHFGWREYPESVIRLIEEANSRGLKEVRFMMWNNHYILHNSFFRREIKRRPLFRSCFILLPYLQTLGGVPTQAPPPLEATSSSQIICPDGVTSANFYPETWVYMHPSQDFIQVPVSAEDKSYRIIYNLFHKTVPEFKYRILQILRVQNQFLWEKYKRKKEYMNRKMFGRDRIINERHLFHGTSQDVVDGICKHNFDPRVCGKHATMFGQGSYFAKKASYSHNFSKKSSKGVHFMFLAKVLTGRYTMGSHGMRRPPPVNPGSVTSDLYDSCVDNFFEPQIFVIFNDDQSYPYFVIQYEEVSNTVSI
Procedure: as §4

PARP5A = PARP5A (Homo sapiens, UniProt O95271); assay: PARP family selectivity; format: biochemical
Sequence of PARP5A (O95271 whole entry, species assumed): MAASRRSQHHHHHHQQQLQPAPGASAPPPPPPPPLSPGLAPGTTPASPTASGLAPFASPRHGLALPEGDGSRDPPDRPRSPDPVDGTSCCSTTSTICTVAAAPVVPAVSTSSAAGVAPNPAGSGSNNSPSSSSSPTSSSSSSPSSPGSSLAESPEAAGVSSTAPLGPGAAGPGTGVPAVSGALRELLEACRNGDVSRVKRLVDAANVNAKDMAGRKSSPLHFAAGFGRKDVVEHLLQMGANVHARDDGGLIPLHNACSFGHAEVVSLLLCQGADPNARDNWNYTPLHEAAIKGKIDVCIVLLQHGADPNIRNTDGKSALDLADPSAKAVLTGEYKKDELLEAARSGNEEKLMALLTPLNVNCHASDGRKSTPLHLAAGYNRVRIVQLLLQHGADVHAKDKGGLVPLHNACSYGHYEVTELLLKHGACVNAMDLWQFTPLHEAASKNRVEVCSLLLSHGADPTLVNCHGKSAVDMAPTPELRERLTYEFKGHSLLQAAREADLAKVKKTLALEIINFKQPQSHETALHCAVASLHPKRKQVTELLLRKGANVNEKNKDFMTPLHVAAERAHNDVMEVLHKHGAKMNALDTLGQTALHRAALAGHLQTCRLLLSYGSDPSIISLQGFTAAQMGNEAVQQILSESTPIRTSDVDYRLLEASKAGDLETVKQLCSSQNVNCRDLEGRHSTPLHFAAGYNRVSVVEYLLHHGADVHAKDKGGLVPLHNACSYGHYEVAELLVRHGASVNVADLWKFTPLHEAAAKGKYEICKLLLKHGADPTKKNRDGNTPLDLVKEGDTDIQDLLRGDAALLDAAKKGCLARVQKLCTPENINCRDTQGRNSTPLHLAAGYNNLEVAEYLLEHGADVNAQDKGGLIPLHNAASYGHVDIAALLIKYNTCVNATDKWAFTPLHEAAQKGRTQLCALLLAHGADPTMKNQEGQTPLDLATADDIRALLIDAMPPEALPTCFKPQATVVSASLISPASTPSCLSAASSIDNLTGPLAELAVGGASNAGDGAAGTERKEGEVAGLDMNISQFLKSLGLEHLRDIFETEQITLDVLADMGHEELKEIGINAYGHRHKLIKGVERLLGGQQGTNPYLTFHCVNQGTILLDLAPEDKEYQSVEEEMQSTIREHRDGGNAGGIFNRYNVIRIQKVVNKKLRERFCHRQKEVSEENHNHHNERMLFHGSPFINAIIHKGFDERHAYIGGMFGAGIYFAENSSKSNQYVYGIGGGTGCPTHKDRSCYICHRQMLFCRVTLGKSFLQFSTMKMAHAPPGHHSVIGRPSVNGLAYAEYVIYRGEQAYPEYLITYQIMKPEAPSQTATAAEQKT
Procedure: (§5) The PARP activity assay was performed by ChemPartner (Shanghai, China). Each well was precoated with histone (final conc.: 100 ng mL^−1) diluted in PBS buffer (contains 10 mmol L^−1 NaH2PO4 and 150 mmol L^−1 NaCl, pH 7.4) by incubation at 4 °C overnight. […] The reaction was initiated by the addition of 10 µL of PARP (final conc.: 0.007 nM/well) at room temperature for 60 min. Add 20 µL of anti‐Poly/Mono‐ADP Ribose Rabbit mAb. Incubate for 1.5 h at room temperature and wash the plate three times using PBST buffer. Add 20 µL of diluted (1:2000) anti‐rabbit IgG, HRP‐linked Antibody. Incubate for 1 h at room temperature and wash the plate three times using PBST buffer. Add 25 µL Femto‐ECL Substrate A and Femto‐ECL Substrate B (1:1) mix. Immediately read chemiluminescence on Envision (Revvity, USA).

PARP5B = PARP5B (Homo sapiens, UniProt Q9H2K2); assay: PARP family selectivity; format: biochemical
Sequence of PARP5B (Q9H2K2 whole entry, species assumed): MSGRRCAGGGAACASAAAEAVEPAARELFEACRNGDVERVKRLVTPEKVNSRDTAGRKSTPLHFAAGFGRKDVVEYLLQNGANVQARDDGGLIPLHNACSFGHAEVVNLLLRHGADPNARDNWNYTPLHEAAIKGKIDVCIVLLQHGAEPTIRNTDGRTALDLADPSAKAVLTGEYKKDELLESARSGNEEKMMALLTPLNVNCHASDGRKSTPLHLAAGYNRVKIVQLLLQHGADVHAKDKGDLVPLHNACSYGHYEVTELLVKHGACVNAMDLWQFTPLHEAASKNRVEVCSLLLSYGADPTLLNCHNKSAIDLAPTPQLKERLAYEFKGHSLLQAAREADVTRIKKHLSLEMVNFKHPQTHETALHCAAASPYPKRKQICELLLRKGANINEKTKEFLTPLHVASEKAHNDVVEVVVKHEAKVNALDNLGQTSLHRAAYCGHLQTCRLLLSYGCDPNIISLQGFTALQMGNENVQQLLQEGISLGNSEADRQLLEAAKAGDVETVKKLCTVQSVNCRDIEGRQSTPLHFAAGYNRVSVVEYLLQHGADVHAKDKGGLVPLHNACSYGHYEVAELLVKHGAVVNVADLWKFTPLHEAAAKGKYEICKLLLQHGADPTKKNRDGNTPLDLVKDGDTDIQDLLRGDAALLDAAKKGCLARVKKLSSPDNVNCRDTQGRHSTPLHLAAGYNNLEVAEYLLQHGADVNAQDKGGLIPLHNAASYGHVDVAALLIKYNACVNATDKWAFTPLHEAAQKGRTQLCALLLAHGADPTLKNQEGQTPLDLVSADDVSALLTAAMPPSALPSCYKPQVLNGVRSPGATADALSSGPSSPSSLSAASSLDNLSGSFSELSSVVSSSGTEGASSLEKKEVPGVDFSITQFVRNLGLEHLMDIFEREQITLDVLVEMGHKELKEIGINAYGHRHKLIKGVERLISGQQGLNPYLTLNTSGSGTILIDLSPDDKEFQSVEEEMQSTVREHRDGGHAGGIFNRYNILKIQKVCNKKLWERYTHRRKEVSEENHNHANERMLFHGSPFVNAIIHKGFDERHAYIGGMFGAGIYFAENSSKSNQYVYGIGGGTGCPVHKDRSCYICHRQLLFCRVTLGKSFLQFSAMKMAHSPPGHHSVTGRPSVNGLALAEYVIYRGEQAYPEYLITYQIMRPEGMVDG
Procedure: as §5

[1] = test system: TNBC cells (MDA‐MB‐231, MDA‐MB‐468, MDA‐MB‐436); assay: Anti‐proliferative activity across three TNBC cell lines (summary); format: cell-based; settings: read-out: IC50 range across three TNBC cell lines
Procedure: as §3, with “Cells were grown at 37 °C, under 95% air and 5% CO₂ until they reached about 70% confluence and were subcultured at least twice before the experiment. Cells were seeded at a density of 1000 cells/well in two 384‐well white plates, and the plates were placed in a 5% CO₂ incubator overnight. Growth” for “Growth”

MDA‐MB‐231 cells = assay: Colony formation assay; format: cell-based; settings: 1.0 µM, 10 days, vs AZD6738, Olaparib alone or combination
Procedure: (§6) The colony formation assay was performed with cells seeded in 6‐well plates (10 000 cells/well). After 10 days, cells were fixed with methanol and stained with crystal violet. The number of colonies was counted. Data represent the means ± SD from 3 independent experiments performed in triplicate wells.

MDA‐MB‐468 cells = assay: Colony formation assay; format: cell-based; settings: 1.0 µM, 10 days, vs AZD6738, Olaparib alone or combination
Procedure: as §6

[2] = 24, 48, 72 h treatment, Figure S2

Sequence of PARP1 (P09874 whole entry): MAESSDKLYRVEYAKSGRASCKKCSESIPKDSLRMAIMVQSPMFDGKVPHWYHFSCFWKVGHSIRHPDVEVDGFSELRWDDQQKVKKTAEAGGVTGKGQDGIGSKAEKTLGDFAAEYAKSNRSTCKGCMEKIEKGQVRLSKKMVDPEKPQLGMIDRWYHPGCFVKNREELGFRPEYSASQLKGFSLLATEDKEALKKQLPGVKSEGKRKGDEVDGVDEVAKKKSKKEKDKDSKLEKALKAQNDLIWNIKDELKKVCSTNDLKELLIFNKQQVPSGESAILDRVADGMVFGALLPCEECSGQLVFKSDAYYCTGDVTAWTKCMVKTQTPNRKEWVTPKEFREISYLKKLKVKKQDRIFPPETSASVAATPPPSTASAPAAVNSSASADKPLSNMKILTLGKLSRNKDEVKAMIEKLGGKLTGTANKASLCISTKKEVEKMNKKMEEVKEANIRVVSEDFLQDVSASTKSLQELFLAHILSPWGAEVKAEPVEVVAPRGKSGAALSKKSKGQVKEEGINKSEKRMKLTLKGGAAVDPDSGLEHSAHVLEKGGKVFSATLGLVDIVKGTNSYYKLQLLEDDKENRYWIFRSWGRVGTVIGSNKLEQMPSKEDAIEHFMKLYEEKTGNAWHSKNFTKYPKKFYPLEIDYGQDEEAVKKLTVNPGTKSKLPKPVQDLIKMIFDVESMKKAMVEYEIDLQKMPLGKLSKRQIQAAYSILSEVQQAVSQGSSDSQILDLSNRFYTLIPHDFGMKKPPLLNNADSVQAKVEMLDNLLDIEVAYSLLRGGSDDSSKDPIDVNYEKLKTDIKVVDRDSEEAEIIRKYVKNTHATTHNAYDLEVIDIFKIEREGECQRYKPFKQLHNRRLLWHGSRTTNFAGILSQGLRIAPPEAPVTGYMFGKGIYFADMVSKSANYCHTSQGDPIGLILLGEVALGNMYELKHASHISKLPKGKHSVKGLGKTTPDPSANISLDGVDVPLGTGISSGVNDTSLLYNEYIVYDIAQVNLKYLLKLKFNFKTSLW

`C[C@@H]1COCCN1c1cc(CNC(=O)c2ccc(C(=O)N3CCN(C(=O)c4cc(Cc5n[nH]c(=O)c6ccccc56)ccc4F)CC3)cc2)nc(-c2ccnc3[nH]ccc23)n1` [Compound B8, (R)‐4‐(4‐(2‐fluoro‐5‐((4‐oxo‐3,4‐dihydrophthalazin‐1‐yl)methyl)benzoyl)piperazine‐1‐carbonyl)‐N‐((6‐(3‐methylmorpholino)‐2‐(1H‐pyrrolo[2,3‐b]pyridin‐4‐yl)pyrimidin‐4‐yl)methyl) benzamide] was tested, and the IC50 (PARP1) was 0.38 ± 0.08 nM, the “anti‐proliferation effect at different time points” value (MDA‐MB‐231; [2]) was “exerted anti‐proliferation activity” and the IC50 (MDA‐MB‐231; Homo sapiens, MDA-MB-231, 120 h, read-out: IC50 MDA‐MB‐231, CTG, 5 days, n = 3) was 1890 ± 130 nM. For the same molecule, the “anti‐proliferation effect at different time points” value (MDA‐MB‐468; [2]) was “exerted anti‐proliferation activity”, the IC50 (MDA‐MB‐468; Homo sapiens, MDA-MB-468, 120 h, CTG, 5 days, n = 3) was 320 ± 10 nM and the IC50 (MDA‐MB‐436) was 9 ± 2 nM. The IC50 (MCF‐7) was 970 ± 90 nM, the IC50 (MDA‐MB‐453) was 1080 ± 30 nM and the inhibition at 30 µM (MCF‐10A; Homo sapiens, MCF-10A, @30 µM, read-out: MCF‐10A inhibitory rate at certain concentration) was 17%. The “inhibitory activity against normal cells” value (MCF‐10A; MCF‐10A) was “minimal inhibitory activity against normal cells”, the IC50 (DNA‐PK) was > 5000 nM and the IC50 (PARP2) was 5.1 nM. The “PARP2 (selectivity over PARP1, fold)” value (PARP2; fold of PARP1 selectivity over PARP2) was 13.4 fold, the IC50 (PARP7) was 28.5 ± 1.3 nM and the “PARP7 (selectivity over PARP1, fold)” value (PARP7; fold of PARP1 selectivity over PARP7) was 75 fold. The IC50 (PARP5A) was 116 nM, the “PARP5A (selectivity over PARP1, fold)” value (PARP5A; fold of PARP1 selectivity over PARP5A) was 305 fold and the IC50 (PARP5B) was 240 nM. For the same molecule, the “PARP5B (selectivity over PARP1, fold)” value (PARP5B; fold of PARP1 selectivity over PARP5B) was 631.6 fold, the IC50 [1] was 9 to 1890 nM and the “colony formation rate” value (MDA‐MB‐231 cells) was “significantly greater inhibitory effect on the colony formation rate”. For the same molecule, the “colony formation rate” value (MDA‐MB‐468 cells) was “significantly greater inhibitory effect on the colony formation rate”.
